≈ marks a conversion by molar mass, not a printed value. Where “and” joins values, the source holds several entries; their conditions need not be identical. Equal values may be shown once. Read-outs that look alike come from different tables or passages of the source.
Key:
[1] = test system: 6 species of antibiotic resistant Escherichia coli (GEN-R, AMP-R, BLFX-R, KAN-R, NA-R and CAZ-R); details: 20 mM glutamine plus 8 μg/mL balofloxacin, 50 μg/mL gentamicin, 160 μg/mL nalidixic acid, ceftazidime, kanamycin or ampicillin; 4 h
Description: (§1) Bacterium cultures of 20 mL were collected and centrifuged at 8,000 rpm for 5 minutes. The bacterial pellets were washed with equal volume of 0.85% saline solution, suspended in M9 medium containing 10 mM sodium acetate and then adjusted to OD600 of 0.5. […] These mixtures were cultured in a shaker at 200 rpm at 37° C. for 4 h. Then 100 μL of bacterial suspension was used for bacterial plate counting.

[2] = test system: ampicillin-resistant Escherichia coli (AMP-R); format: cell-based
Description: as §1
To investigate the effect of antibiotic dose on the sensitivity of bacteria to antibiotics by glutamine, 20 mM glutamine and 20, 40, 80, 160, 240, 320 and 400 μg/mL ampicillin were used to treat ampicillin-resistant Escherichia coli for 4 hours, and then bacterial plate counting was conducted. The survival rates of bacteria with and without glutamine were compared at the same antibiotic concentration.
To investigate the effect of exposure time on the killing efficiency, the viable counts of bacteria were counted during 1-8 hours after spiked with 20 mM glutamine and 160 μg/mL ampicillin.
To investigate the effect of glutamine concentration on killing efficiency and the optimum bactericidal concentrations, different concentrations of glutamine were added to 160 μg/mL ampicillin. The number of live bacteria was counted after 4 hours. The survival rate was calculated according to the formula below: viable counts at different concentration of glutamine/viable counts without glutamine×100%.
Single clone of ampicillin-resistant Escherichia coli was selected and inoculated in 100 mL LB medium and cultured at 200 rpm at 37° C. for 16 hours. Bacterial suspension of 20 mL was collected and centrifuged at 8,000 rpm for 5 min. The resulting bacterial pellets were washed with equal volume of 0.85% saline solution, suspended in M9 medium containing 10 mM sodium acetate and then adjusted to […] of 0.5. Aliquots of 5 mL bacterial cells were transferred to test tubes for further application.
The sample was added with 160 μg/mL ampicillin and 0-20 Mm glucose, then cultured in a shaker at 200 rpm at 37° C. for 4 hours. The cell number was counted and survival rate was calculated. […]

[3] = test system: Escherichia coli K12 BW25113 (control bacteria); experiment: Viable counts and survival rate of control bacteria; format: cell-based; details: 4 hours
Description: (§2) The viable counts and survival rate of bacteria were calculated after added with 20 mM glutamine and 160 μg/mL ampicillin for 4 hours.
(§3) The viable counts and survival rate of bacteria were calculated after added with 20 mM glutamine and 4 kinds of penicillins (does for control bacteria were: ampicillin 25 μg/mL, penicillin G 200 μg/mL, amoxicillin 20 μg/mL, carbenicillin 100 μg/mL; does for antibiotic resistant bacteria were: ampicillin 320 μg/mL, penicillin G 2560 μg/mL, amoxicillin 512 μg/mL, carbenicillin 320 μg/mL) for 4 hours.
The viable counts and survival rate of bacteria were calculated after added with 20 mM glutamine and antibiotics at the concentration of 8 times of MIC for 4 hours.

[4] = test system: eight species of antibiotic resistant Escherichia coli; experiment: Viable counts and survival rate of several antibiotic resistant bacteria with ampicillin; format: cell-based; details: 20 mM glutamine, 160 μg/mL ampicillin, 4 hours
Description: as §2

[5] = test system: penicillin-resistant Escherichia coli (4 antibiotic resistant bacteria); experiment: Viable counts and survival rate of penicillin-resistant bacteria with 4 penicillins; format: cell-based; details: 20 mM glutamine with ampicillin 320 μg/mL, penicillin G 2560 μg/mL, amoxicillin 512 μg/mL or carbenicillin 320 μg/mL, 4 hours
Description: as §3, with “To investigate whether the sensitivity of Escherichia coli and antibiotic resistant Escherichia coli to penicillin antibiotics was improved with glutamine, the samples of control bacteria and penicillin-resistant bacteria were prepared according to Embodiment 2.1. The” for “The”, “hours. […] The sensitivity of control bacteria increased 38-1000 times and 71-1900 times for 4 antibiotic resistant bacteria when added with glutamine.” for “hours.”

[6] = test system: Staphylococcus aureus, Edwardsiella tarda, Beta streptococcus, Pseudomonas aeruginosa, Escherichia coli, Vibrio alginolyticus and Vibrio parahaemolyticus; experiment: Plate counting of several species of bacteria with ampicillin and glutamine; format: cell-based; details: 20 mM glutamine and ampicillin at double MIC for each strain, 4 hours
Description: (Staphylococcus aureus, B. streptococcus, Pseudomonas aeruginosa, Escherichia coli) or 30° C. (the others) for 16 hours.

[7] = test system: ampicillin-resistant Escherichia coli biofilm; experiment: Biofilm on PE-50 catheters in vitro, survival rate; format: cell-based; details: 6 hours; for elimination of biofilm by single agent: 20 mM glutamine or 160 μg/mL ampicillin alone; for bacterial survival rate in biofilm (treatment group/saline control): 20 mM glutamine, 160 μg/mL ampicillin, 20 mM glucose as present
Description: (§4) Single clone of ampicillin-resistant Escherichia coli was selected and incubated in LB medium overnight, then transferred into 2 mL fresh LB medium according to the proportion of 1:200 dilutions and transferred to 6 mm ultraviolet sterilized PE-50 catheters. The catheters were inoculated in 1 mL LB at 37 for 24 h. The culture medium was changed every 24 hours for 3 days. The biofilm of ampicillin-resistant bacteria in PE50 catheters were washed with 1 mL sterile phosphate-buffered saline five times to remove loosely adherent cells, and then transferred to 1.5 mL EP tubes.
The test was divided into six groups: saline solution control, 20 mM glutamine, 160 μg/mL ampicillin, 160 μg/mL ampicillin plus 20 mM glutamine, 160 μg/mL ampicillin plus 20 mM glucose, 160 μg/mL ampicillin plus 20 mM glutamine and 20 mM glucose. The catheters were cultured in a shaker at 200 rpm at 37 for 6 hours. The bacterial biofilm was removed from catheters with sonication for 10 minutes. Serial dilutions and spot-plating were performed to determine the cell number. The bacterial survival rate was calculated as: viable counts in treatment group/viable counts in control group×100%.

[8] = test system: ampicillin-resistant Escherichia coli biofilm; experiment: Mouse urinary tract catheter biofilm model, bacterial survival rate in biofilm; format: in vivo; details: mice, tail intravenous injection twice-daily for 3 days; glutamine 100 mg kg−1, glucose 100 mg kg−1, ampicillin 320 mg kg−1 as present
Description: as §4
In vivo experiments in mice, female mice (5 weeks, weighing 18-20 g) received surgical implantation in the urinary tract of PESO catheter tubes. The mice were randomly divided into six groups in 48 h after the surgery, five each group. The six groups included treatment with saline (group 1), 100 mg kg^−1 glutamine (group 2), 320 mg kg^−1 ampicillin (group 3), 100 mg kg^−1 glutamine plus 320 mg kg^−1 ampicillin (group 4), 100 mg kg^−1 glucose plus 320 mg kg^−1 ampicillin (group 5), and 100 mg kg^−1 glutamine and 100 mg kg^−1 glucose plus 320 mg kg^−1 ampicillin (group 6) by tail intravenous injection for 3 days, twice-daily. Catheter tubes were extracted in 24 hours after the last treatment. […] The survival rate was calculated as: viable counts in treatment group/viable counts in control group×100%.

[9] = test system: antibiotic-resistant bacteria in kidneys; experiment: Mouse urinary tract infection model, bacterial content in kidneys; format: in vivo; details: mice, tail i.v. twice-daily for 3 days; glutamine 100 mg kg−1, glucose 100 mg kg−1, ampicillin 320 mg kg−1 as present; saline group 16750
Description: In vivo experiments in mice, female mice (5 weeks, weighing 18-20 g) received surgical implantation in the urinary tract of PESO catheter tubes. The mice were randomly divided into six groups in 48 h after the surgery, five each group. The six groups included treatment with saline (group 1), 100 mg kg^−1 glutamine (group 2), 320 mg kg^−1 ampicillin (group 3), 100 mg kg^−1 glutamine plus 320 mg kg^−1 ampicillin (group 4), 100 mg kg^−1 glucose plus 320 mg kg^−1 ampicillin (group 5), and 100 mg kg^−1 glutamine and 100 mg kg^−1 glucose plus 320 mg kg^−1 ampicillin (group 6) by tail intravenous injection for 3 days, twice-daily. Catheter tubes were extracted in 24 hours after the last treatment. To dislodge biofilm cells, catheters were suspended in saline solution with ultrasonic. Serial dilutions and spot-plating were performed to determine the bacterial survival rate in biofilm. The survival rate was calculated as: viable counts in treatment group/viable counts in control group×100%.
Meanwhile, kidneys of mice were homogeneous with appropriate amount of saline. Bacterial content in kidneys was determined by plate counting method.

[10] = test system: Escherichia coli K12 BW25113; experiment: MIC by double dilution method, initial bacteria; format: cell-based; details: Escherichia coli, BW25113, read-out: MIC0
Description: (§5) Escherichia coli is a bacterium that is most commonly found in the gut of human and animal. It mainly parasitizes in the intestines, and accounts for about 1% of the intestine bacteria. Minimum inhibitory concentration (MIC) of Escherichia coli K12 BW25113 for ten kinds of antibiotics was detected with double dilution method. Escherichia coli K12 BW25113 of 10^5 colony forming unit/ml was cultured respectively in Luria-Bertani (LB) liquid medium separately with each of ten antibiotics at the concentration of ½ MIC at 37° C., and was serially passaged 10 times, so that the MIC of single colony was determined.

[11] = test system: antibiotic-resistant Escherichia coli (passaged K12 BW25113); experiment: MIC of single colony after 10 serial passages with antibiotic at 1/2 MIC; format: cell-based
Description: as §5

NC(=O)CC[C@H](N)C(=O)O [glutamine]
sensitivity of antibiotic resistant bacteria to respective antibiotic [1]: improved the sensitivity of 6 species of antibiotic resistant bacteria to respective antibiotic | killing efficiency increase compared with the treatment without glutamine ([2]; 20 mM glutamine, 20 μg/mL ampicillin, 4 hours): 1.12 folds | killing efficiency increase compared with the treatment without glutamine ([2]; 20 mM glutamine, 40 μg/mL ampicillin, 4 hours): 1.57 folds | killing efficiency increase compared with the treatment without glutamine ([2]; 20 mM glutamine, 80 μg/mL ampicillin, 4 hours): 1.95 folds | elevated sensitivity of ampicillin-resistant bacteria to ampicillin ([2]; 20 mM glutamine, 160 μg/mL ampicillin, 4 h): about 200 folds | killing efficiency increase compared with the treatment without glutamine ([2]; 20 mM glutamine, 160 μg/mL ampicillin, 4 hours): 7.66 folds | killing efficiency increase ([2]; 20 mM glutamine, 160 μg/mL ampicillin, after 4 hours or more): 8-22 times | killing efficiency increase compared with the treatment without glutamine ([2]; 20 mM glutamine, 240 μg/mL ampicillin, 4 hours): 24.29 folds | killing efficiency increase compared with the treatment without glutamine ([2]; 20 mM glutamine, 320 μg/mL ampicillin, 4 hours): 137.78 folds | killing efficiency increase compared with the treatment without glutamine ([2]; 20 mM glutamine, 400 μg/mL ampicillin, 4 hours): 171.34 folds and 200 folds | sensitivity to four types of penicillins increased ([3]; 20 mM glutamine with ampicillin 25 μg/mL, penicillin G 200 μg/mL, amoxicillin 20 μg/mL or carbenicillin 100 μg/mL): 38-1000 times | sensitivity to 4 kinds of antibiotics improved ([3]; 20 mM glutamine with tetracycline, erythromycin, clindamycin or rifampicin at 8 times of MIC): approximately 1.5 times | sensitivity to ampicillin increased ([3]; 20 mM glutamine, 160 μg/mL ampicillin): 1.75 times | sensitivity to ampicillin increased [4]: 4-36 times | sensitivity to four types of penicillins increased [5]: 71-1900 times | sensitivity of several species of bacteria to ampicillin [6]: improved generally | elimination of biofilm by single agent [7]: did not eliminate the antibiotic-resistant bacterium biofilm | bacterial survival rate in biofilm (treatment group/saline control) [7]: 96.03% | bacterial survival rate in catheter biofilm in comparison with saline control [8]: 88.24% | bacterial content in kidneys [9]: 9113 cell/g

CC1(C)S[C@@H]2[C@H](NC(=O)[C@H](N)c3ccccc3)C(=O)N2[C@H]1C(=O)O [ampicillin]
MIC [10]: 6.25 µg/mL (≈ 17.9 µM) | MIC ([11]; Escherichia coli, BW25113, read-out: MIC10): 400 µg/mL | MIC10/MIC0 ([11]; ratio of MIC after to before passage): 64 | survival rate ([2]; 20 μg/mL ampicillin, without or with 20 mM glutamine, 4 hours): 99.81% | survival rate ([2]; 40 μg/mL ampicillin, without or with 20 mM glutamine, 4 hours): 97.27% | survival rate ([2]; 80 μg/mL ampicillin, without or with 20 mM glutamine, 4 hours): 95.55% | survival rate ([2]; 160 μg/mL ampicillin without glutamine, 7 hours): 74% | survival rate ([2]; 160 μg/mL ampicillin without glutamine, after 8 hours): 66.19% | viable counts of bacteria ([2]; 160 μg/mL ampicillin without glutamine, during 1-4 hours): remained unchanged | survival rate ([2]; 160 μg/mL ampicillin, without glucose or with increasing glucose (0-20 Mm), 4 hours): 94.33% | survival rate ([2]; 160 μg/mL ampicillin, without glutamine or with increasing glutamine concentration, 4 hours): 94.33% | survival rate ([2]; 160 μg/mL ampicillin, without or with 20 mM glutamine, 4 hours): 93.72% | survival rate ([2]; 240 μg/mL ampicillin, without or with 20 mM glutamine, 4 hours): 86.72% | survival rate ([2]; 320 μg/mL ampicillin, without or with 20 mM glutamine, 4 hours): 83.51% | survival rate ([2]; 400 μg/mL ampicillin, without or with 20 mM glutamine, 4 hours): 67.15% | survival rate ([3]; 160 μg/mL ampicillin, without or with 20 mM glutamine): 74.22% | elimination of biofilm by single agent [7]: did not eliminate the antibiotic-resistant bacterium biofilm | bacterial survival rate in biofilm (treatment group/saline control) [7]: 92.84% | bacterial survival rate in catheter biofilm in comparison with saline control [8]: 76.81% | bacterial content in kidneys [9]: 9129 cell/g
